Experiment: water solubility / miscibility with water
Type: physicochemical

| Structure (SMILES) | water solubility (miscibility with water) |
| --- | --- |
| CCCC[n+]1cccc(C)c1.N#C[N-]C#N [N-butyl-3-methylpyridinium dicyanamide, 3-Methyl-1-butylpyridinium dicyanamide] | water-miscible |
| CCCC[n+]1ccccc1.N#C[N-]C#N [N-butylpyridinium dicyanamide] | water-miscible |
| CCCCCCCC[n+]1cccc(C)c1.N#C[N-]C#N [N-octyl-3-methylpyridinium dicyanamide, 3-Methyl-1-octylpyridinium dicyanamide] | water-immiscible |
| CCCCCCCC[n+]1ccccc1.N#C[N-]C#N [N-octylpyridinium dicyanamide] | water-immiscible |
